# Measurements from patent US9463193B2, “Individual 5-fluorouracile dose optimization in folfiri treatment” (INSTITUT DE CANCEROLOGIE DE L'OUEST, priority 2008, dated 2016).
# Legend:
# [1] = human, in vivo
# Method: A total of 90 patients were studied. All were treated for advanced colorectal cancer following treatment including irinotecan, fluorouracil and leucovorin (FOLFIRI Regimen)
# After 200 mg/m^2 of intravenous leucovorin bolus and 400 mg/m^2 of intravenous push of 5-FU for 10 minutes, 5-FU was administered with an initial dose of 2,500 mg/m^2 every two weeks for 46-hours through a battery-operated pump, except in case of DPD significant mutation, in which case the initial dose of 5-FU in 46 hours continuous infusion was decreased by 50%.
# Irinotecan was administered before 5-FU for 2 hours and the initial dose was 180 mg/m^2 without reduction for UGT 1A1 7/7 genotype group.
# Treatment was continued until documented progression.
# Statistical analysis used the chi2 test, linear regression analysis and the Kaplan-Meier method.
# [2] = patients treated by 5-FU; cited from earlier work
# [3] = cited from earlier work
# [4] = subject with normal DPD enzymatic activity
structure (smiles),measurement,setting,value
"O=c1[nH]cc(F)c(=O)[nH]1 [5-FU, 5-fluorouracile]","neutropenia grade 4, number observed",[1],1
same,death due to polyvisceral toxicity,[2],0.8 % of treated patients
same,severe grade 3-4 toxicity,[2],20-25%
same,very early polyvisceral toxicity,[2],5-8 % of patients
same,time to plateau of plasmatic levels after beginning of continuous infusion,[3]; 5-FU continuous infusion,about 1 hour
same,half-life in blood,"[3]; human, in vivo",very short
same,5-FU clearance variation depending on the subject,[3]; interindividual,6 to 10 factor
same,clearance multiplication from bolus administration to continued perfusion,[3]; perfusion during several hours or days,10 factor
same,administered 5-FU available for the anabolic pathway,[3]; [4],20%
same,administered 5-FU eliminated by DPD in the catabolic pathway,[3]; [4],about 80%
